According to patent US8557804B2, “Nicotinic receptor agonists for the treatment of inflammatory diseases” (priority 2002, dated 2013):

What was measured:
[1] = tested on: TNF release by human blood monocytes; test: cells; assay type: cell-based; conditions: 40 μM, mean of 5 subjects
Protocol: Human monocytes were isolated from the blood of asthmatic patients by Ficoll-paque density gradient, let to adhere to tissue culture plates and stimulated with LPS (100 ng/ml) for 18 hours at 37° C. with or without increasing concentrations of nicotine. The release of TNF, a potent pro-inflammatory mediator, was measured in the cell culture supernatant by the ELISA method. Results are expressed as a percentage release from LPS-stimulated untreated cells (FIG. 28).
Tumor necrosis factor (TNF) is a mediator released in inflammatory states.
Human blood monocytes were isolated by Ficoll-paque density gradient, let to adhere to tissue culture plates and stimulated with LPS (100 ng/ml) for 18 hours at 37° C. with or without increasing concentrations of nicotine analogues.

[2] = tested on: IL-5; test: BAL IL-5 levels in the ovalbumin mouse asthma model; assay type: in vivo, Balb/c mice; conditions: 0.5 mg/kg treated-group
Protocol: Groups of Balb/c mice were sensitized by intra-peritoneal injection of 20 μg OVA protein (chicken egg albumin; Sigma-Aldrich) emulsified in 2 mg aluminum hydroxide in PBS. After 4 weeks, challenge doses of 1.5%/50 μl OVA were administered intranasally. The challenge was performed daily for 3 consecutive days and then the mice assessed for allergic inflammation of the lungs 24 h after the last aerosol exposure. Groups of mice were treated with various concentrations of DMPP during the challenge period. Broncho-alveolar lavage (BAL) was performed and the fluid centrifuged at 400 g to separate cells from liquid.
The supernatants were used to determine lung IL-5 levels. The total, number of BAL cells and differential cell counts were evaluated.

[3] = tested on: IFN-γ mRNA in T lymphocytes isolated from BAL; test: IFN-γ mRNA in PHA-stimulated BAL lymphocytes from HP patients; assay type: cell-based, human
Protocol: Since one goal was to treat patients with DMPP or similar drugs, the effect of this drug was verified on lymphocytes from patients with HP. BAL were performed on patients with HP. Lymphocytes were isolated from the other BAL cells, stimulated with PHA and incubated with DMPP. The dose-response of DMPP were tested on cytokine mRNA production (by RT-PCR) for IFN-γ.

**Q.** For C[N+]1(C)CCN(c2ccccc2)CC1 [DMPP, Dimethylphenylpiperazinium], which TNF release [1] is on record?
**A.** inhibits TNF release

**Q.** What about the “IL-5 levels in BAL” value [2] of the same molecule?
**A.** significant inhibitory effect

**Q.** And the “expression of IFN-γ mRNA” value [3]?
**A.** reduced expression of IFN-γ
